Converted amounts (≈) assume the structure as drawn. The source made the active and inactive calls. The rule behind the calls is not given here.

The MIC is the lowest concentration that inhibits growth of the organism.

Data set [1] has as its system Staphylococcus aureus. Nature of the data set: Bactericidal activity against thymidine kinase-deficient methicillin-resistant Staphylococcus aureus AH1252 infected in in vitro rat fibrin clot model assessed as reduction in bacterial colony at 3.5 ug/ml after 48 hrs. The class given is functional, organism-based.
Data set [2] concerns Staphylococcus aureus. Description: Bactericidal activity against methicillin-resistant Staphylococcus aureus AW6 infected in in vitro human fibrin clot model assessed as log reduction in bacterial colony at 3.5 ug/ml after 24 hrs. The class given is functional.
Data set [3] concerns Staphylococcus aureus. Nature of the data set: Bactericidal activity against thymidine kinase-deficient methicillin-resistant Staphylococcus aureus AH1252 infected in in vitro human fibrin clot model assessed as log reduction in bacterial colony at 3.5 ug/ml after 24 hrs. The class given is functional.
The nature of data set [4]: Plasma protein binding in human. The class given is ADME, cell-free. The conditions noted are these: read-out: PPB (converted).
In data set [5] the test system is Staphylococcus aureus. Nature of the data set: Bactericidal activity against methicillin-resistant Staphylococcus aureus AW6 at 3.5 ug/ml by time kill analysis in presence of 50% human serum and 1 ug/ml thymidine. The format is functional, organism-based.
Data set [6] has as its system Staphylococcus aureus. Nature of the data set: Antimicrobial activity against thymidine kinase-deficient methicillin-resistant Staphylococcus aureus AH1252 grown on CAMHB media after 24 hrs by broth microdilution method in presence of 50% human serum and 1 ug/ml thymidine. The format is functional. As to conditions: AH1252, 24 h. For orientation: Dilution methods test growth across graded concentrations, often in twofold steps.

For data set [7], the system named is Staphylococcus aureus. Description: Bactericidal activity against methicillin-resistant Staphylococcus aureus AW6 at 3.5 ug/ml by time kill analysis in presence of 50% rat serum and 1 ug/ml thymidine. The class given is functional, organism-based.
For data set [8], the system named is Staphylococcus aureus. Nature of the data set: Antimicrobial activity against methicillin-resistant Staphylococcus aureus AW6 grown on CAMHB media after 24 hrs by broth microdilution method. The conditions noted are these: AW6, 24 h. The class given is functional.
The test system of data set [9] is Staphylococcus aureus. Description: Antimicrobial activity against methicillin-resistant Staphylococcus aureus AW6 grown on CAMHB media after 24 hrs by broth microdilution method in presence of 0.2 U/ml thymidine phosphorylase. The format is functional. The conditions noted are these: AW6, 24 h.
For data set [10], the system named is Staphylococcus aureus. Description: Antimicrobial activity against methicillin-resistant Staphylococcus aureus AW6 grown on CAMHB media after 24 hrs by broth microdilution method in presence of 50% rat serum. The conditions noted are these: AW6, 24 h. The class given is functional.
In data set [11] the test system is Staphylococcus aureus. Nature of the data set: Antimicrobial activity against methicillin-resistant Staphylococcus aureus AW6 grown on CAMHB media after 24 hrs by broth microdilution method in presence of 50% rat serum and 0.2 U/ml thymidine phosphorylase. The format is functional. The conditions noted are these: AW6, 24 h.
Data set [12] has as its system Staphylococcus aureus. Description: Antimicrobial activity against methicillin-resistant Staphylococcus aureus AW6 grown on CAMHB media after 24 hrs by broth microdilution method in presence of protein depleted rat serum. The class given is functional. As to conditions: AW6, 24 h.
Data set [13] concerns Staphylococcus aureus. Nature of the data set: Antimicrobial activity against methicillin-resistant Staphylococcus aureus AW6 grown on CAMHB media after 24 hrs by broth microdilution method in presence of 50% human serum. The format is functional. The conditions noted are these: AW6, 24 h.
Data set [14] has as its system Staphylococcus aureus. Description: Antimicrobial activity against methicillin-resistant Staphylococcus aureus AW6 grown on CAMHB media after 24 hrs by broth microdilution method in presence of 50% human serum and 0.2 U/ml thymidine phosphorylase. The class given is functional. The conditions noted are these: AW6, 24 h.
Data set [15] has as its system Staphylococcus aureus. Description: Antimicrobial activity against methicillin-resistant Staphylococcus aureus AW6 grown on CAMHB media after 24 hrs by broth microdilution method in presence of protein depleted human serum. As to conditions: AW6, 24 h. The class given is functional.
The test system of data set [16] is Staphylococcus aureus. Nature of the data set: Antimicrobial activity against thymidine kinase-deficient methicillin-resistant Staphylococcus aureus AH1252 grown on CAMHB media after 24 hrs by broth microdilution method. The format is functional. The conditions noted are these: AH1252, 24 h.
Data set [17] deals with Staphylococcus aureus. Nature of the data set: Antimicrobial activity against thymidine kinase-deficient methicillin-resistant Staphylococcus aureus AH1252 grown on CAMHB media after 24 hrs by broth microdilution method in presence of 0.2 U/ml thymidine phosphorylase. The format is functional. The conditions noted are these: AH1252, 24 h.
In data set [18] the test system is Staphylococcus aureus. Nature of the data set: Antimicrobial activity against thymidine kinase-deficient methicillin-resistant Staphylococcus aureus AH1252 grown on CAMHB media after 24 hrs by broth microdilution method in presence of 50% rat serum. The class given is functional. As to conditions: AH1252, 24 h.
Data set [19] concerns Staphylococcus aureus. Description: Antimicrobial activity against thymidine kinase-deficient methicillin-resistant Staphylococcus aureus AH1252 grown on CAMHB media after 24 hrs by broth microdilution method in presence of 50% rat serum and 0.2 U/ml thymidine phosphorylase. The format is functional. As to conditions: AH1252, 24 h.
Data set [20] concerns Staphylococcus aureus. Nature of the data set: Antimicrobial activity against thymidine kinase-deficient methicillin-resistant Staphylococcus aureus AH1252 grown on CAMHB media after 24 hrs by broth microdilution method in presence of protein depleted rat serum. The class given is functional. As to conditions: AH1252, 24 h.
Data set [21] deals with Staphylococcus aureus. Description: Antimicrobial activity against thymidine kinase-deficient methicillin-resistant Staphylococcus aureus AH1252 grown on CAMHB media after 24 hrs by broth microdilution method in presence of 50% human serum. As to conditions: AH1252, 24 h. The class given is functional.
Data set [22] concerns Staphylococcus aureus. Description: Antimicrobial activity against thymidine kinase-deficient methicillin-resistant Staphylococcus aureus AH1252 grown on CAMHB media after 24 hrs by broth microdilution method in presence of 50% human serum and 0.2 U/ml thymidine phosphorylase. The format is functional. As to conditions: AH1252, 24 h.
For data set [23], the system named is Staphylococcus aureus. Nature of the data set: Antimicrobial activity against thymidine kinase-deficient methicillin-resistant Staphylococcus aureus AH1252 grown on CAMHB media after 24 hrs by broth microdilution method in presence of protein depleted human serum. The class given is functional. As to conditions: AH1252, 24 h.
Data set [24] in a line: Protein binding in human serum. The class given is ADME, cell-free. As to conditions: read-out: PB (converted).
Data set [25] can be described thus: Protein binding in rat serum. The class given is ADME, cell-free. The conditions noted are these: read-out: PB (converted).
The test system of data set [26] is Staphylococcus aureus. Nature of the data set: Antimicrobial activity against methicillin-resistant Staphylococcus aureus AW6 grown on CAMHB media after 24 hrs by broth microdilution method in presence of 50% human serum and 1 ug/ml thymidine. As to conditions: AW6, 24 h. The class given is functional.
Data set [27] has as its system Staphylococcus aureus. Description: […] activity against methicillin-resistant Staphylococcus aureus AW6 assessed as loss of bacterial cell viability at 3.5 ug/ml by time kill analysis in presence of 50% rat serum. The class given is functional.
The subject of data set [28] is Staphylococcus aureus. Nature of the data set: Bactericidal activity against thymidine kinase-deficient methicillin-resistant Staphylococcus aureus AH1252 assessed as loss of bacterial cell viability at 3.5 ug/ml by time kill analysis in presence of 50% rat serum. The class given is functional, organism-based.
Data set [29] relates to Staphylococcus aureus. Nature of the data set: […] activity against methicillin-resistant Staphylococcus aureus AW6 assessed as loss of bacterial cell viability at 3.5 ug/ml measured within 8 hrs by time kill analysis in presence of 50% human serum. The class given is functional.
Data set [30] relates to Staphylococcus aureus. Description: Bactericidal activity against thymidine kinase-deficient methicillin-resistant Staphylococcus aureus AH1252 assessed as loss of bacterial cell viability at 3.5 ug/ml measured within 8 hrs by time kill analysis in presence of 50% human serum. The format is functional.
Data set [31] deals with Staphylococcus aureus. Description: Bactericidal activity against methicillin-resistant Staphylococcus aureus AW6 at 3.5 ug/ml by time kill analysis in presence of 50% rat serum and 0.2 U/ml thymidine phosphorylase. The class given is functional, organism-based.
In data set [32] the test system is Staphylococcus aureus. Nature of the data set: Bacteriostatic activity against methicillin-resistant Staphylococcus aureus AW6 infected in in vitro rat fibrin clot model assessed as reduction in bacterial colony at 3.5 ug/ml after 48 hrs. The format is functional, organism-based.
Data set [33] deals with Staphylococcus aureus. Nature of the data set: Bactericidal activity against methicillin-resistant Staphylococcus aureus AW6 infected in in vitro rat fibrin clot model assessed as reduction in bacterial colony at 40 ug/ml after 48 hrs. The class given is functional, organism-based.
Data set [34] has as its system Staphylococcus aureus. Description: Bactericidal activity against thymidine kinase-deficient methicillin-resistant Staphylococcus aureus AH1252 infected in in vitro rat fibrin clot model assessed as reduction in bacterial colony at 40 ug/ml after 48 hrs. The class given is functional, organism-based.
Data set [35] has as its system Staphylococcus aureus. Description: Bacteriostatic activity against methicillin-resistant Staphylococcus aureus AW6 infected in in vitro human fibrin clot model assessed as reduction in bacterial colony at 40 ug/ml after 24 hrs. The class given is functional, organism-based.
In data set [36] the test system is Staphylococcus aureus. Description: Bactericidal activity against thymidine kinase-deficient methicillin-resistant Staphylococcus aureus AH1252 infected in in vitro rat fibrin clot model assessed as reduction in bacterial colony at 40 ug/ml after 24 hrs. The class given is functional, organism-based.
Data set [37] has as its system Staphylococcus aureus. Description: Bactericidal activity against methicillin-resistant Staphylococcus aureus AW6 at 40 ug/ml by time kill analysis in presence of 50% rat serum. The format is functional, organism-based.
Data set [38] has as its system Staphylococcus aureus. Description: Bactericidal activity against methicillin-resistant Staphylococcus aureus AW6 at 40 ug/ml by time kill analysis in presence of 50% human serum. The class given is functional, organism-based.
Data set [39] deals with Staphylococcus aureus. Nature of the data set: Bactericidal activity against thymidine kinase-deficient methicillin-resistant Staphylococcus aureus AH1252 at 40 ug/ml by time kill analysis in presence of 50% rat serum. The format is functional, organism-based.
In data set [40] the test system is Staphylococcus aureus. Nature of the data set: Bactericidal activity against thymidine kinase-deficient methicillin-resistant Staphylococcus aureus AH1252 at 40 ug/ml by time kill analysis in presence of 50% human serum. The format is functional, organism-based.

`COc1cc(Cc2cnc(N)nc2N)c2c(c1OC)OC(C1CC1)C=C2` (stereo not given) [ICLAPRIM]: the result in the data set with Staphylococcus aureus [1], in the data set on Staphylococcus aureus [28], in the data set on Staphylococcus aureus [31] and in the data set with Staphylococcus aureus [32] was Active. The log10CFU/ml result in the data set on Staphylococcus aureus [2], in the data set with Staphylococcus aureus [3], in the data set with Staphylococcus aureus [27], with Staphylococcus aureus [29] and in the data set with Staphylococcus aureus [30] was “>=3” in each case. The fraction unbound in [4] was 0.07; in [24] it was 0.05; in data set [25] it was 0.1. Besides, the outcome in the data set on Staphylococcus aureus [5] and in the data set with Staphylococcus aureus [7] was inactive. Further, the MIC with Staphylococcus aureus [6] was 0.03 µg/mL; against Staphylococcus aureus [8], 0.06 µg/mL (≈ 0.169 µM); in the data set with Staphylococcus aureus [9], 0.03 µg/mL; in the data set on Staphylococcus aureus [10], over 2 µg/mL; in the data set with Staphylococcus aureus [11], 0.06 µg/mL; with Staphylococcus aureus [12] it was over 2 µg/mL. In addition, the MIC was found to be 0.12 µg/mL in the data set with Staphylococcus aureus [13]; 0.2 µg/mL with Staphylococcus aureus [14]; 0.03 µg/mL in the data set with Staphylococcus aureus [15]; 0.03 µg/mL (≈ 0.0846 µM) against Staphylococcus aureus [16]; 0.03 µg/mL with Staphylococcus aureus [17]; 0.03 µg/mL in the data set on Staphylococcus aureus [18]. For the same compound, the MIC in the data set with Staphylococcus aureus [19] was 0.03 µg/mL; in the data set with Staphylococcus aureus [20] it was 0.06 µg/mL; with Staphylococcus aureus [21], 0.06 µg/mL; with Staphylococcus aureus [22], 0.06 µg/mL; in the data set on Staphylococcus aureus [23], 0.03 µg/mL; in the data set on Staphylococcus aureus [26] it was over 2 µg/mL.
For the compound `CN[C@H](CC(C)C)C(=O)N[C@H]1C(=O)N[C@@H](CC(N)=O)C(=O)N[C@H]2C(=O)N[C@H]3C(=O)N[C@H](C(=O)N[C@H](C(=O)O)c4cc(O)cc(O)c4-c4cc3ccc4O)[C@H](O)c3ccc(c(Cl)c3)Oc3cc2cc(c3O[C@@H]2O[C@H](CO)[C@@H](O)[C@H](O)[C@H]2O[C@H]2C[C@](C)(N)[C@H](O)[C@H](C)O2)Oc2ccc(cc2Cl)[C@H]1O`, the result with Staphylococcus aureus [33], in the data set with Staphylococcus aureus [34], in the data set on Staphylococcus aureus [35], with Staphylococcus aureus [36], in the data set on Staphylococcus aureus [37] and in the data set on Staphylococcus aureus [38] was Active. Besides, the result in the data set on Staphylococcus aureus [39] and in the data set on Staphylococcus aureus [40] was Active.

Source of the values: ChEMBL document CHEMBL1671660, “Efficacy of iclaprim against wild-type and thymidine kinase-deficient methicillin-resistant Staphylococcus aureus isolates in an in vitro fibrin clot model” (Antimicrob Agents Chemother, 2009).
